Reference: US9708370B2, “Azapeptides as CD36 binding compounds” (VALORISATION-RECHERCHE, LIMITED PARTNERSHIP, priority 2007, dated 2017)
Like-named read-outs stand apart in the source and are kept apart here. Starred links: 1 amine or outer side, 2 acyl side, 3 side chain; linkers in the order of their positions; H or OH if unused. Non-standard residues stand in square brackets, D forms with d. Residues, ends and D or L forms follow the SMILES beside them. azaTyr = O=C(N(Cc1ccc(O)cc1)N[*:1])[*:2]; azaPhe = O=C(N(Cc1ccccc1)N[*:1])[*:2]; X2 = O=C(N(CCc1ccccc1)N[*:1])[*:2]; azaLeu = CC(C)CN(N[*:1])C(=O)[*:2]; X1 = O=C(N(CC1CCCCC1)N[*:1])[*:2]; azaPro = O=C(N1CCCN1[*:1])[*:2]

Columns and labels:
CD36 = CD36 (Rattus norvegicus (Rat), UniProt Q07969); assay: CD36 receptor covalent photolabelling binding assay, competition with [125I]Tyr-Bpa-Ala-hexarelin on rat cardiac membranes
CD36, sequence (Q07969 whole entry): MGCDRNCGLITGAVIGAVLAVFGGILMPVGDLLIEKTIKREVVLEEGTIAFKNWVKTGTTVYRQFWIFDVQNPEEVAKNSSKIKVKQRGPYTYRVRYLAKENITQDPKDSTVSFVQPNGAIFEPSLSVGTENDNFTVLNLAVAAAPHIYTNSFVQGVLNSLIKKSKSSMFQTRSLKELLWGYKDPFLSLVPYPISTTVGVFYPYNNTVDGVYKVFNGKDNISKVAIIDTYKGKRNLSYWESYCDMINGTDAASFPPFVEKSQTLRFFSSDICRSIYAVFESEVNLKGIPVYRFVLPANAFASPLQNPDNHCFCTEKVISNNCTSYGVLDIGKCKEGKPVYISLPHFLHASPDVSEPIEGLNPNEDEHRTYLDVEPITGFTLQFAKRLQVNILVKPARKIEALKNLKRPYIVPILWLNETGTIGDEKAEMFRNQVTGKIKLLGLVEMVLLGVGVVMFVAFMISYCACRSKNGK
Method: The hearts from Sprague Dawley rats (300 g-325 g) from Charles River, used as a source of cardiac membranes, were prepared as follows: the heart was washed with ice-cold saline, and fatty and connective tissue was removed. The tissue was cut into small pieces with scissors and placed in a Sorvall centrifuge tube containing 5 ml/g of fresh tissue of Buffer A (10 mM NaHCO3, 5 mM NaN3, 10 μM Pefabloc, 0.1 μM Aprotinin, 1 μM Pepstatin A, 1 μM Leupeptin, pH 7.0). The suspension was homogenized with a Polytron at low speed, 3×15 sec. The homogenate was centrifuged at 8 700×g for 20 min and the supernatant was put on ice. The pellet was resuspended and homogenized with a Glass-teflon Potter by 5 strokes. The homogenate was centrifuged at 8 700×g for 10 min and this supernatant was combined with the first supernatant. The supernatant fluid was centrifuged at 35 000×g for 20 min, yielding a second pellet fraction that was suspended thoroughly in a glass homogenizer with a Teflon pestle in 20 ml/g of fresh tissue of Buffer B (20 mM Tris-maleate, 0.6M KCl, pH 6.8). The resulting suspension was centrifuged again at 35 000×g for 60 min. The third pellet fraction was resuspended thoroughly in a glass homogenizer with a Teflon pestle in 20 ml/g of fresh tissue of Buffer C (10 mM Tris/HCl buffer pH 7.4) followed with another centrifugation at 35 000×g for 60 min. The harvested precipitate was then suspended in a small volume (1-2 ml/g of fresh tissue) of 50 mM Tris/HCl buffer pH 7.4) containing 2 mM EGTA. The resulting membrane preparation was frozen at −80° C. Protein concentration was determined with bicinchoninic acid (BCA) method, using BSA as standard.
The iodination procedure was performed in the darkness. […] The reaction was started by adding 5 ul (3 nmol) of H2O2. The incubation was carried out at 22° C. for 5 min. The addition of H2O2 was repeated twice with 5 min incubation each time. The reaction was stopped with the addition of 1.4 ml of 0.1% TFA. The iodinated peptide was purified on a reverse-phase Vydac C18 column with a 60 min linear gradient (1 ml/min) from 20% to 50% acetonitrile (90%) in 0.1% TFA (10%).
Nonspecific binding was defined as binding not displaced by 50 μM corresponding peptide. All peptide containing solutions were diluted in Buffer B. Buffer A and B were degassed under vacuum, and used in capped tubes in order to minimize lipid peroxydation. Before the incubation period, all tubes were put under a low flow of nitrogen. All material was kept on ice and the binding assay was performed in darkness. After an incubation period of 60 min at 22° C. […] After centrifugation at 12 000×g for 15 minutes, the pellets were resuspended in 150 μl of sample buffer (62 mM Tris-HCl, pH 6.8, 2% SDS, 10% glycerol, 15% 2-mercapto-ethanol, and 0.05% bromophenol blue), and boiled for 5 min prior to being subjected to electrophoresis. Proteins (200 μg/100 μl) were separated on 7.5% SDS-PAGE (45 V overnight). The gels resulting from SDS/PAGE were fixed, colored in Coomassie Brilliant Blue R-250, dried, exposed to a storage phosphor intensifying screen (Amersham Biosciences), and analysed by using a Typhoon PhosphorImager (Amersham Biosciences) and ImageQuant 5.0 software to establish competition curves. Protein bands were quantified by densitometry. The covalent binding signal of 87 kDa was analyzed by densitometry using Typhoon Phospholmager™ (Typhoon, Amersham Biosciences) and ImageQuant 5.0® software to set competition curves.
Specific binding activities were defined as the ratio of the density of the protein band to that of a non-specific band. Results are expressed as the percentage of the density of the […] to that of the total binding band.

human GHS-R1a = human GHS-R1a (Homo sapiens (Human), UniProt Q92847); assay: GHS-R1a binding assay, competition with 125I-ghrelin on membranes of LLC-PK1 cells expressing human GHS-R1a
human GHS-R1a, sequence (Q92847 whole entry): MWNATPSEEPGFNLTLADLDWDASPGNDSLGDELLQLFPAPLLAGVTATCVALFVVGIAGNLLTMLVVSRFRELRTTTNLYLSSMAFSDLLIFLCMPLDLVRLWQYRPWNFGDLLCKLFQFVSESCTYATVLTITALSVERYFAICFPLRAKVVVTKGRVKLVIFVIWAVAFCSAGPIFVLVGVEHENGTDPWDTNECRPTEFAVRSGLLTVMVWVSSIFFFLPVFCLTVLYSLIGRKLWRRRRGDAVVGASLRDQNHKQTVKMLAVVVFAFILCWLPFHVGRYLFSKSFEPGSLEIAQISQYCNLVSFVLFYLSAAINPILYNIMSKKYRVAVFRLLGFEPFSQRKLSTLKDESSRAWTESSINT
Method: Rat ghrelin was radio iodinated with Na^125I using the lodo-Beads iodination reagent (Pierce #28665). Briefly, an lodo-bead was incubated with 2 mCi of Na^125I (Amersham) in 100 μL of 50 mM sodium phosphate buffer, pH 7.0 for 5 min at 22° C. The reaction was started by adding 20 nmol of the peptide (1 mM in 0.1 M acetic acid). The tube was incubated for 10 min at 22° C. The iodination was terminated by adding 1 mL of 0.1% TFA. The mono-iodinated peptide was purified by reverse-phase HPLC using a Vydac C18 ([…]) column (30 cm×0.39 cm) in combination with a binary elution system of (A) 0.1% TFA in H2O and (B) 0.1% TFA, 10% H2O, 90% acetonitrile. Fractions of 0.5 mL were collected and analyzed by its radioactive content.
Cells (1.4×10^6) were plated in 100 mm plates and transfected 24 h later with pCDNA3.1-hGHS-R1a (UMR cDNA Resource Center #GHSR0A0000) following the CaHPO4 precipitation method. Briefly, 40 μg of plasmid DNA was diluted in 500 μL of sterile H2O and added to an equal volume of a 4× CaCl2, pH 7.9 solution (2 mM Tris-HCl, 0.2 mM EDTA, 500 mM CaCl2). The mixture was then added slowly with air bubbles to 1 mL of 2× Hepes-buffered saline, pH 7.1 (50 mM Hepes, 280 mM NaCl, 1.5 mM Na2HPO4). After 30 min at room temperature, 1 mL was distributed evenly over the cells and let overnight. The medium was changed the next morning and the membrane preparation was made two days later.
Cells were washed twice with PBS and once with ice-cold homogenization buffer (50 mM Tris-HCl, pH 7.3, 5 mM MgCl2, 2.5 mM EDTA, 30 μg/ml bacitracin). Cells were scraped and harvested in 1.5 mL tubes. Cells were then lysed by temperature shock with two freeze/thaw cycles in liquid nitrogen. The tubes were centrifuged at 14000 g for 20 min. Pellets were resuspended in homogenization buffer and stored at −80° C. until used. Total protein concentrations were determined with the BCA protein assay kit (Pierce).
Competition experiments were performed by incubating 50 μg of LLC-PK1 membranes expressing human GHS-R1a with 15 fmol of ^125I-Ghrelin and increasing concentrations of unlabeled ghrelin or with increasing concentrations of azapeptides derivatives in 0.5 mL of binding buffer. Bound radiolabelled ligand was separated from free by filtration on Whatman GF/C filters pretreated with a 1% polyethylenimine solution. Filters were washed with 2×3 mL of washing buffer (50 mM Tris-HCl, pH 7.3, 10 mM MgCl2, 2.5 mM EDTA, 0.015% Triton X-100). Filters were counted in a LKB gamma counter. Curves were analyzed using Prism software (GraphPad Software Inc).

[1] = Table 6, read-out: IC50 Binding CD36
[2] = Table 5, read-out: IC50 Binding GHS-R1a
[3] = Table 3, rat cardiac membranes, [125I]Tyr-Bpa-Ala-hexarelin as radioligand, read-out: IC50, binding affinity of aza peptide derivatives towards CD36
[4] = Table 4, LLCPK-1 membranes overexpressing GHS-R1a, radioiodinated (1-28) rat ghrelin as tracer, read-out: EC50 (text: IC50 values from competition curves in GHS-R1a radioreceptor assay)

What does the source list for C[C@H](NC(=O)[C@@H](Cc1c[nH]c2ccccc12)NC(=O)[C@@H](N)Cc1cnc[nH]1)C(=O)N[C@@H](Cc1c[nH]c2ccccc12)C(=O)N1CCCN1C(=O)N[C@@H](CCCCN)C(N)=O [CP-AP-2, His-D-Trp-Ala-Trp-AzaPro-Lys-NH2] (H-H[dW]AW[azaPro]K-NH2)?
IC50 (CD36; [1]): > 10 µM; IC50 (human GHS-R1a; [2]): > 10 µM

Which results are given for C[C@H](NC(=O)[C@@H](Cc1c[nH]c2ccccc12)NC(=O)[C@@H](N)Cc1cnc[nH]1)C(=O)N1CCCN1C(=O)N[C@H](Cc1ccccc1)C(=O)N[C@@H](CCCCN)C(N)=O [CP-AP-3, His-D-Trp-Ala-azaPro-D-Phe-Lys-NH2] (H-H[dW]A[azaPro][dF]K-NH2)?
IC50 (CD36; [1]): > 10 µM; IC50 (human GHS-R1a; [2]): > 10 µM

How did the IC50 (CD36; [3]) turn out when C[C@H](NC(=O)[C@@H](Cc1c[nH]c2ccccc12)NC(=O)[C@@H](N)Cc1cnc[nH]1)C(=O)NN(Cc1ccccc1)C(=O)N[C@H](Cc1ccccc1)C(=O)N[C@@H](CCCCN)C(N)=O [DBG253-1, His-D-Trp-Ala-azaPhe-D-Phe-Lys-NH2] (H-H[dW]A[azaPhe][dF]K-NH2) was run?
The IC50 was 1.34 µM.

And the “binding activity/affinity at CD36 in words” value (CD36; compared with parent peptide GHRP-6 or hexarelin)?
Its value is “maintaining the binding activity”.

And the IC50 (human GHS-R1a; [4])?
Its IC50 is 2.77 µM.

What about the “binding affinity for GHS-R1a receptor in words” value (human GHS-R1a; compared with GHRP-6) of the same compound?
The value was “reducing the binding affinity”.

Which results are given for CC(C)CN(NC(=O)[C@H](C)NC(=O)[C@@H](Cc1c[nH]c2ccccc12)NC(=O)[C@@H](N)Cc1cnc[nH]1)C(=O)N[C@H](Cc1ccccc1)C(=O)N[C@@H](CCCCN)C(N)=O [DBG253-2, His-D-Trp-Ala-azaLeu-D-Phe-Lys-NH2] (H-H[dW]A[azaLeu][dF]K-NH2)?
IC50 (CD36; [3]): 2890 µM; IC50 (human GHS-R1a; [4]): 19.5 µM

Which IC50 (CD36; [3]) does the source give for C[C@H](NC(=O)[C@@H](Cc1c[nH]c2ccccc12)NC(=O)[C@@H](N)Cc1cnc[nH]1)C(=O)NN(CC1CCCCC1)C(=O)N[C@H](Cc1ccccc1)C(=O)N[C@@H](CCCCN)C(N)=O [DBG253-4, His-D-Trp-Ala-azaCha-D-Phe-Lys-NH2] (H-H[dW]A[X1][dF]K-NH2) here?
The IC50 was 2100 µM.

And the IC50 (human GHS-R1a; [4])?
The IC50 was 4.28 µM.

Which results are given for C[C@H](NC(=O)[C@@H](Cc1c[nH]c2ccccc12)NC(=O)[C@@H](N)Cc1cnc[nH]1)C(=O)NN(CCc1ccccc1)C(=O)N[C@H](Cc1ccccc1)C(=O)N[C@@H](CCCCN)C(N)=O [DBG253-5, His-D-Trp-Ala-azahomoPhe-D-Phe-Lys-NH2] (H-H[dW]A[X2][dF]K-NH2)?
IC50 (CD36; [3]): > 10 µM; IC50 (human GHS-R1a; [4]): 3.74 µM

For C[C@H](NC(=O)[C@@H](Cc1c[nH]c2ccccc12)NC(=O)[C@@H](N)Cc1cnc[nH]1)C(=O)N[C@@H](Cc1ccc(O)cc1)C(=O)N[C@H](Cc1ccccc1)C(=O)N[C@@H](CCCCN)C(N)=O [DBG253-7, His-D-Trp-Ala-Tyr-D-Phe-Lys-NH2] (H-H[dW]AY[dF]K-NH2), which IC50 (CD36; [3]) is on record?
Its IC50 is 13.2 µM.

And the IC50 (human GHS-R1a; [4])?
The IC50 was 0.771 µM.

Which IC50 (CD36; [3]) does the source give for C[C@H](NC(=O)[C@@H](Cc1c[nH]c2ccccc12)NC(=O)[C@@H](N)Cc1cnc[nH]1)C(=O)N[C@H](Cc1ccc(O)cc1)C(=O)N[C@H](Cc1ccccc1)C(=O)N[C@@H](CCCCN)C(N)=O [DBG253-8, His-D-Trp-Ala-D-Tyr-D-Phe-Lys-NH2] (H-H[dW]A[dY][dF]K-NH2) here?
Its IC50 is 12 µM.

What about the IC50 (human GHS-R1a; [4]) of the same compound?
Its IC50 is 3.25 µM.

With C[C@H](NC(=O)N(Cc1ccccc1)NC(=O)[C@@H](N)Cc1cnc[nH]1)C(=O)N[C@@H](Cc1c[nH]c2ccccc12)C(=O)N[C@H](Cc1ccccc1)C(=O)N[C@@H](CCCCN)C(N)=O [DBG253-9, His-azaPhe-Ala-Trp-D-Phe-Lys-NH2] (H-H[azaPhe]AW[dF]K-NH2) as the compound, how does the IC50 (CD36; [3]) read?
The IC50 was 72.4 µM.

What about the IC50 (human GHS-R1a; [4]) of the same compound?
Its IC50 is 16.1 µM.

Which results are given for C[C@H](NC(=O)N(CC1CCCCC1)NC(=O)[C@@H](N)Cc1cnc[nH]1)C(=O)N[C@@H](Cc1c[nH]c2ccccc12)C(=O)N[C@H](Cc1ccccc1)C(=O)N[C@@H](CCCCN)C(N)=O [DBG253-13, His-azaCha-Ala-Trp-D-Phe- Lys-NH2] (H-H[X1]AW[dF]K-NH2)?
IC50 (CD36; [3]): > 10 µM; IC50 (human GHS-R1a; [4]): 5.49 µM

What does the source list for C[C@H](NC(=O)[C@@H](Cc1c[nH]c2ccccc12)NC(=O)[C@@H](N)Cc1ccccc1)C(=O)NN(Cc1ccc(O)cc1)C(=O)N[C@H](Cc1ccccc1)C(=O)N[C@@H](CCCCN)C(N)=O [ZS554-F29, Phe-D-Trp-Ala-azaTyr-D-Phe-Lys-NH2] (H-F[dW]A[azaTyr][dF]K-NH2)?
IC50 (CD36; [1]): 11.8 µM; IC50 (human GHS-R1a; [2]): > 10 µM
